For data set [1] the following is noted: in water; read-out: dissociation constant of the complex with methylguanidinium ion; cited from earlier work.
For data set [2] the following is noted: water or aqueous medium; cited from earlier work.
Data set [3] is described as follows: UV-visible titration of receptor with N-methylguanidine hydrochloride in distilled water. Type of data set: binding. Here is the method: (§1) UV-visible absorbance and fluorescence were examined. UV spectra were recorded on a Hewlett-Packard 8452A diode array UV-vis spectrophotometer, using a cell of 1 cm pathlength. Fluorescence spectra were recorded on a Photon Technology International QM-1 Steady state Fluorescence system. For UV-visible titrations stability constants (Ks) were calculated by fitting the data to the equation: Aobs=(εR[R]t+[R]t(εRG−εR)(Ks[G]t+Ks[R]t+1−sqrt((Ks[G]t+Ks[R]t+1)^2−4*[R]t Ks^2[G]t))/(2Ks[R]t))1 derived from Ks=[G][R]/[RG], [R]t=[R]+[RG], [G]t=[G]+[RG], and Aobs=(εR[R]+εRG[RG])1. The experimentally determined parameters are as follows: [R]t, the total concentration of a receptor; [G]t, the total concentration of a guest; Aobs, the observed absorbance; εR, the extinction coefficient of free receptor; 1, cell pathlength. The fitted parameters: εRG, the extinction coefficient of a receptor complex with a guest, Ks, the stability constant. For fluorescense titrations stability constants (Ks) were calculated by fitting as the data to the equation: Iobs=IR+(IRG−IR)(Ks[G]t+Ks[R]t+1−sqrt((Ks[G]t+Ks[R]t+1)^2−4*[R]tKs^2[G]t))/(2Ks[R]t) derived from Ks=[G][R]/[RG], [R]t=[R]+[RG], [G]t=[G]+[RG], and Iobs=IR+IRG. The experimentally determined parameters are as follows: [R]t, the total concentration of a receptor; [G]t, the total concentration of a guest; Iobs, the observed fluorescence intensity; IR, the fluorescence intensity of free receptor at a given concentration. The fitted parameters: IRG, the fluorescence intensity of a receptor complex with aguest at a given concentration, Ks, the stability constant. The calculations were performed using software Sigma Plot 1.02 (Jandel Scientific) with tolerance value 0.000100. The goodness of fit was evaluated by means of the Student's Paired t-Test (P-value>0.05).
UV-visible titrations was performed by first preparaing a 30 μM receptor 5 (compound IA) stock solution in distilled water. […]
The following parameters were found from absorbance data measured at 410 nm: εR=6.50×10^3 cm^−1 M^−1, εRG=2.43×10^4 cm^−1 M^−1, Ks=1.0×10^5 M^−1.

Data set [4] can be described thus: Fluorescence quenching of receptor on addition of N-methylguanidinium. The data set is classed as binding. The note with it: 30 μM receptor in distilled water, excitation 388 nm, 2 equivalents of guest. As for the experimental part: as §1, with “The fitted parameters: εRG, the extinction coefficient of a receptor complex with a guest, Ks, the stability constant.” left out, “The fitted parameters: IRG, the fluorescence intensity of a receptor complex with aguest at a given concentration, Ks, the stability constant. The calculations were performed using software Sigma Plot 1.02 (Jandel Scientific) with tolerance value 0.000100. The goodness of fit was evaluated by means of the Student's Paired t-Test (P-value>0.05).” left out

Data set [5] in a line: Fluorescence complexation studies of receptors with urea. The data set is classed as binding. As for the experimental part:
as §1
A fluorescence titration study was performed as follows: a stock solution of the receptor (compound IB) was prepared with distilled water. Using the equipment described in Example 6, an excitation wavelength of 384 nm was used to obtain the spectrum for the uncomplexed receptor. Thereafter, four (4) aliquots of a urea stock solution were added with fluorescence being measured after each addition. A composite spectrum is show in FIG. 8.
Fluorescence was measured for the stock receptor solution using an excitation wavelength of 384 nm with a peak emission being observed at 450 nm. The stock urea solution was then added and fluorescence was measured again. A composite spectrum is shown in FIG. 10, with curve (a) representing the receptor without urea and curve (b) representing the complexation of the receptor with urea.
Fluorescence was also measured using a 25 μM stock solution of the receptor in distilled water. […] A urea solution was prepared and added to the receptor solution to measure quenching due to complexation.
Fluorescence was measured for a 20 μM stock solution of compound ID in a 98:2 (v/v) DMSO:water solvent system. An excitation wavelength of 407 nm was used with a peak emission being observed at 450 nm. A 0.17 M urea solution was then added and fluorescence measured again. A composite spectrum is shown in FIG. 11, with curve (a) representing the receptor (i.e., compound ID) without urea and curve (b) representing the complexation of the receptor with urea. […]
Fluorescence was measured for a 20 μM stock solution of compound IE in a 1:1 (v/v) DMSO:CHCl3 solvent system. […] Twenty equivalents of urea were then added and fluorescence measured again. […]

Where [6] appears, read: in water, fluorescence quenching, read-out: Kd with urea.

pKd: −log10 of the molar value. Where a name gives a salt, the structure may show the parent alone. Read-outs that look alike come from different tables or passages of the source.

As for `O=C(O)c1ccc2c(n1)-c1nc3nc4c(cc3cc1CC2)CCc1ccc(C(=O)O)nc1-4` [Compound 3], the pKd in data set [1] was 2.37. For the same compound, in data set [2], the “solubility in water / aqueous medium” value is “soluble in water”.

As for `CCCCc1c2c(nc3c1CCc1cc4cc5c(nc4nc1-3)-c1nc3c(c(CCCC)c1CC5)CCc1cc4cccnc4nc1-3)-c1nc3ncccc3cc1CC2` [Compound 4], the “solubility in water / aqueous medium” value in data set [2] is “not soluble in water”.

On to `O=C(O)c1ccc2c(n1)-c1nc3nc4c(cc3cc1CC2)CCc1cc2c(nc1-4)-c1nc3ncccc3cc1CC2` [Compound IA, 5,6,9,10,12,13-Hexahydro[1,10]phenanthrolino[2,3-b]pyrido[2′3′:2,3]quino[7,8-j][1,10]phenanthroline-2-carboxylic acid, potassium salt], for which the “stability constant Ks of complex with N-methylguanidinium” value in data set [3] (30 μM receptor in distilled water, absorbance at 410 nm) was 100000 M⁻¹. Moreover, the “binds N-methylguanidinium more strongly than the arginine cork” value in data set [3] (in water) was found to be 430 times. Further, in data set [3] (in water, correlated from Ks, read-out: Kd of complex with N-methylguanidinium), the pKd is 5.00. The “emission band at 410 nm, remaining share of original fluorescence intensity” value in data set [4] is recorded as “approximately 24%”.

As for `Nc1ccc2cc3c(nc2n1)-c1nc2c(cc1CC3)CCc1cc3cc4c(nc3nc1-2)-c1nc(C(=O)O)ccc1CC4` [Compound IB, 17-Amino-5,6,9,10,12,13-hexahydro[1,10]phenanthrolino[2,3-b]pyrido[2′3′:2,3]quino[7,8-j][1,10]phenanthroline-2-carboxylic acid, potassium salt], the pKd in data set [5] (setting [6]) was greater than 1.77.

Regarding `Nc1cccc(-c2ccc3c(n2)-c2nc4nc5c(cc4cc2CC3)CCc2ccc(C(=O)O)nc2-5)n1` [Compound IC, 5,6,9,10-Tetrahydro-13-(2-aminopyridin-6-yl)[1,10]phenanthrolino[2,3-b][1,10]phenanthroline-2-carboxylic acid], the pKd in data set [5] (in DMSO, 30 μM receptor, excitation 384 nm, read-out: Kd for urea) is 1.48; in data set [5] (setting [6]), 1.89.

On to `O=C(O)c1ccc2c(n1)-c1nc3nc4c(cc3cc1CC2)CCc1ccc(-c2nc(O)cc(O)n2)nc1-4` [Compound ID, 5,6,9,10-Tetrahydro-13-(4,6-dihydroxypyrimidin-2-yl) [1,10]phenanthrolino [2,3-b][1,10]phenanthroline-2-carboxylic acid, potassium salt], for which the pKd in data set [5] (98:2 (v/v) DMSO:water, 20 μM receptor, excitation 407 nm, read-out: Kd for urea) is 1.30.

In the case of `COc1cc(N(C)C)c(OC)cc1CCNC(=O)c1ccc2c(n1)-c1nc3nc4c(cc3cc1CC2)CCc1ccc(C(=O)NCCNc2ccc3c5c(cccc25)C(=O)N(Cc2ccc(C(=O)OC(C)(C)C)cc2)C3=O)nc1-4` [Compound IE, 5,6,9,10-Tetrahydro[1,10]phenanthrolino[2,3-b][1,10]phenanthroline-2-(N-(4-aminoethyl-N′-(4-tert-butoxycarbonyltoluidyl)naphthyridine))carboxamide-13-(N-(2,5-dimethoxy-4-dimethylaminophenethyl))carboxamide], the pKd in data set [5] (1:1 (v/v) DMSO:CHCl3, 20 μM receptor, excitation 460 nm, read-out: Kd for urea) was 1.80.

The values above are taken from patent US6525200B1, “Multicyclic aromatic compounds and uses thereof” (Roche Diagnostics Corporation, priority 2000, dated 2003).
